# Test results as given in patent US9655981B2, “Mixed micelles” (Omeros Corporation, priority 2011, dated 2017).
# Assays:
# MDA-MB-435-MDR cells = assay: Cytotoxicity, MTS assay; details: 4 hours treatment, viability after 24 hours, 16 μg/mL DOX
# Protocol: The cell lines which were used were the MDA-MB-435 (Parent) and MDA-MB-435-MDR (MDR) cell lines.
# Cytotoxicity was measured by treating MDA-MB-435 (Parent) and MDA-MB-435-MDR cells for 4 hours with free doxorubicin and encapsulated doxorubicin using various formulations of mixed micelles. After 4 hours the doxorubicin was rinsed from the cells. After 24 hours the cell viability was measured using an MTS assay. MDA-MB-435 cells were treated with 4 μg/mL DOX, and […] cells were treated with 16 μg/mL DOX.
# [1] = Stability of ICG in micelles in vitro (decay of fluorescence emission in water); format: physicochemical; details: within forty-eight hours, deionized water, dark
# Description: ICG has advantageous fluorescence properties for near-infrared imaging (NIR) in vivo but limitations include the molecule's photo, aqueous, and thermal instability as well as rapid binding to blood proteins and subsequent clearance by the liver. See, e.g., Cherrick, J. Clin. Invest. 39:592-600 (1959) and Kirchherr, et al., Mol. Pharmaceut. 6:480-491 (2009). Aqueous degradation of ICG occurs as a result of double bond saturation in the molecule's conjugated chain, and sequestering the molecule from the solvent radicals that activate this process reduces the rate of its degradation. See, e.g., Kirchherr et al., and Altinoglu and Adair, Wiley Interdisciplinary Reviews—Nanomedicine and Nanobiotechnology, 2:[…] (2010). To test the ability of the mixed micelle systems to stabilize ICG, the fluorescence of encapsulated dye was monitored over time at both room temperature and 37° C.
# Stability of ICG in mixed micelles was evaluated by measuring decay of fluorescence emission in solution over a period of approximately ten days. […] At predetermined intervals, each mixture was sampled and the fluorescence intensity of the sample was evaluated with excitation at 775 nm and emission from 786 to 850 nm.
"ICG fluorescence, % of original fluorescence value ([1]; 37° C.)","ICG fluorescence, % of original fluorescence value ([1]; room temperature)",Compound,"cytotoxicity (cell viability, in words) (MDA-MB-435-MDR cells)"
,,"COc1cccc2c1C(=O)c1c(O)c3c(c(O)c1C2=O)C[C@@](O)(C(=O)CO)C[C@@H]3O[C@H]1C[C@H](N)[C@H](O)[C@H](C)O1 [Unencapsulated DOX, Doxorubicin]",limited effect
less than 10%,less than 10%,"CC1(C)C(/C=C/C=C/C=C/C=C2\N(CCCCS(=O)(=O)O)c3ccc4ccccc4c3C2(C)C)=[N+](CCCCS(=O)(=O)[O-])c2ccc3ccccc3c21 [free ICG, indocyanine green]",
